The text below walks through data of ChEMBL document CHEMBL4840352 (J Med Chem, 2021).

One assay relates to MOLM-13. Nature of the assay: Antiproliferative activity against human MOLM-13 cells incubated for 48 hrs by CCK-8 assay. Format: functional, cell-based. The following applies: MOLM-13, 48 h. Background: Tetrazolium dyes change colour on reduction, which living cells bring about.
Another assay concerns MV4-11. Nature of the assay: Antiproliferative activity against human MV4-11 cells incubated for 48 hrs by CCK-8 assay. Format: functional, cell-based. The conditions noted are these: MV4-11, 48 h.
Assay [1] has as its system Receptor-type tyrosine-protein kinase FLT3 (Homo sapiens), P36888 [UNDEFINED MUTATION]. Nature of the assay: Induction of FLT3-ITD degradation in human MOLM-13 cells after 24 hrs by Western blot analysis. Format: cell-based. In general terms: A western blot detects proteins with antibodies after separation by electrophoresis.
Assay [2] has the same test system. Nature of the assay: Induction of FLT3-ITD degradation in human MV4-11 cells after 24 hrs by Western blot analysis. Format: cell-based.

SMILES strings stand for the structures.

Sequence of Receptor-type tyrosine-protein kinase FLT3 (Homo sapiens), P36888 [UNDEFINED MUTATION] (P36888 whole entry, looked up, stated change not applied): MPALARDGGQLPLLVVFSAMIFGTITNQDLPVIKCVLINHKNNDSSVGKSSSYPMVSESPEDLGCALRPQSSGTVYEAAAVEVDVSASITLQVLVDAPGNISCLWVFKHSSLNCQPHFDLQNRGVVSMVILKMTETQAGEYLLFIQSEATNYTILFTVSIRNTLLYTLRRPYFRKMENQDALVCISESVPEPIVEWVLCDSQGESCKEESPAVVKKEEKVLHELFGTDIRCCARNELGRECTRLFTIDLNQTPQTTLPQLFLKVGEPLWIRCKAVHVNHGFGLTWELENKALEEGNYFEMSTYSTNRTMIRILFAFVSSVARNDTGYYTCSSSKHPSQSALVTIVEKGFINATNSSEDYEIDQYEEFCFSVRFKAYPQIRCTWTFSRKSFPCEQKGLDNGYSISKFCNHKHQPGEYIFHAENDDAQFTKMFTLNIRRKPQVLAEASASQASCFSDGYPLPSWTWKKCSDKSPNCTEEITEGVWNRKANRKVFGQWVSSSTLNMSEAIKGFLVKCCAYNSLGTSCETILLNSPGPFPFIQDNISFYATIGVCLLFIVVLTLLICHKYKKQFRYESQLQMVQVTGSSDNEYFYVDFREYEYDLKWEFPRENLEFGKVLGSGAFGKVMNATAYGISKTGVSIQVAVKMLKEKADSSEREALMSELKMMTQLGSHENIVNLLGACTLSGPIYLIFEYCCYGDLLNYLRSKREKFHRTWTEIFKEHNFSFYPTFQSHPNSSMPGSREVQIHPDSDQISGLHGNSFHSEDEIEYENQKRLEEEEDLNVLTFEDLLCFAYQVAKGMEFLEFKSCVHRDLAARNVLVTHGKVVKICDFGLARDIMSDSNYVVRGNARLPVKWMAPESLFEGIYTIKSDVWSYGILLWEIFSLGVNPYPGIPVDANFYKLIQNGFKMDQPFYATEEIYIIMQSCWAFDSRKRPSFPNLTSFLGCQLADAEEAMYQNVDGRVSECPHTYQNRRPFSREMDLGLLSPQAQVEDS

One may read the IC50 as the concentration that inhibits the measured activity by half. Read a high IC50 as weaker potency in that assay. On to `Nc1c(-c2nc3cc(N4CCN(C(=O)CCCCC#Cc5cccc6c5C(=O)N(C5CCC(=O)NC5=O)C6=O)CC4)ccc3[nH]2)c(=O)[nH]c2cccc(F)c12` (stereo not drawn), for which the concentration for half-maximal inhibition (IC50) in the assay on MOLM-13 is 306 nM; in the assay on MV4-11, 635 nM.

On to `Nc1c(-c2nc3cc(N4CCN(CCC(=O)Nc5cccc6c5C(=O)N(C5CCC(=O)NC5=O)C6=O)CC4)ccc3[nH]2)c(=O)[nH]c2cccc(F)c12` (stereo not drawn), for which the half-maximal inhibitory concentration (IC50) in the assay on MOLM-13 and in the assay on MV4-11 was greater than 1000 nM throughout.

Regarding `Nc1c(-c2nc3cc(N4CCN(C(=O)CCC#Cc5cccc6c5C(=O)N(C5CCC(=O)NC5=O)C6=O)CC4)ccc3[nH]2)c(=O)[nH]c2cccc(F)c12` (stereo not drawn), the half-inhibitory concentration (IC50) was greater than 1000 nM in the assay on MOLM-13 and 929 nM in the assay with MV4-11.

For the compound `CN1C(=O)CCC(N2C(=O)c3cccc(NCCCCCC(=O)N4CCN(c5ccc6[nH]c(-c7c(N)c8c(F)cccc8[nH]c7=O)nc6c5)CC4)c3C2=O)C1=O` (stereo not drawn), the 50% inhibitory concentration (IC50) worked out at 141 nM with MOLM-13 and 466 nM in the assay with MV4-11. In addition, the Activity entry in assay [1] and in assay [2] was “Dose-Dependent Effect” in each case.

As for `Nc1c(-c2nc3cc(N4CCN(CCCCC(=O)Nc5cccc6c5C(=O)N(C5CCC(=O)NC5=O)C6=O)CC4)ccc3[nH]2)c(=O)[nH]c2cccc(F)c12` (stereo not drawn), the IC50 was greater than 1000 nM in the assay on MOLM-13 and 726 nM with MV4-11.

Consider `Nc1c(-c2nc3cc(N4CCN(CCCCCC(=O)Nc5cccc6c5CN(C5CCC(=O)NC5=O)C6=O)CC4)ccc3[nH]2)c(=O)[nH]c2cccc(F)c12` (stereo not drawn), for which the 50% inhibitory concentration (IC50) with MOLM-13 and in the assay on MV4-11 was greater than 1000 nM each time.

For `Nc1c(-c2nc3cc(N4CCN(CCCCCCCC(=O)Nc5cccc6c5C(=O)N(C5CCC(=O)NC5=O)C6=O)CC4)ccc3[nH]2)c(=O)[nH]c2cccc(F)c12` (stereo not drawn), the half-maximal inhibitory concentration (IC50) in the assay on MOLM-13 and with MV4-11 was greater than 1000 nM in each case.

Consider `Nc1c(-c2nc3cc(N4CCN(CCCCCCC(=O)Nc5cccc6c5CN(C5CCC(=O)NC5=O)C6=O)CC4)ccc3[nH]2)c(=O)[nH]c2cccc(F)c12` (stereo not drawn), for which the IC50 in the assay with MOLM-13 and in the assay on MV4-11 was greater than 1000 nM in each case.
